Reference: patent US20050085554A1, “Methods of treating disease through the administration of a manzamine analog or derivative” (priority 2003, published 2005)
Values after ≈ are worked out from the molar mass of the structure shown.

Assays:
[1] = tested on: Mycobacterium tuberculosis H37Rv; test: In vitro antimycobacterial activity (Microplate Alamar Blue Assay), MIC; format: cell-based; conditions: for MIC against Mycobacterium tuberculosis (Mtb): rifampin = positive control; for Mycobacterium Tuberculosis (H37Rv) MIC: T4
[2] = tested on: Cryptococcus neoformans; test: Antifungal activity against Cryptococcus neoformans; format: cell-based; conditions: for Antifungal IC50 C. neoformans: T5, NA = not active
[3] = tested on: Candida albicans; test: Antifungal activity against Candida albicans; format: cell-based
[4] = tested on: Plasmodium falciparum (D6 clone); test: Antimalarial activity in vitro, D6 clone; format: cell-based
[5] = tested on: P. falciparum (chlorine-resistant W2 clone); test: Antimalarial activity in vitro, W2 clone; format: cell-based, Plasmodium falciparum
[6] = tested on: Staphylococcus aureus; test: Antibacterial activity against S. aureus; format: cell-based; conditions: for Antibacterial IC50 S. aureus: T5, NA = not active
[7] = tested on: methicillin-resistant Staphylococcus aureus; test: Antibacterial activity against MRS; format: cell-based; conditions: for Antibacterial IC50 MRS: T5, NA = not active
[8] = tested on: Mycobacterium intracellulare; test: Activity against M. intracellulare; format: cell-based; conditions: for IC50 M. intracellulare: T5, NA = not active
[9] = tested on: Aspergillus fumigatus; test: Antifungal activity against Aspergillus fumigatus; format: cell-based; conditions: T6, footnote a: the lowest concentration that significantly inhibits growth
[10] = tested on: Leishmania donovani; test: Antileishmanial activity in vitro; format: cell-based
[11] = tested on: HIV-1LAV; test: Anti-HIV-1 activity in PBM cells; format: cell-based, human immunodeficiency virus (HIV-1)
Procedure: Anti-HIV-1 activity was determined in PBM cells as described previously. See, Stock solutions (20 or 40 mM) of the compounds were prepared in sterile DMSO and then diluted to the desired concentration in growth medium. Cells were infected with the prototype HIV-1LAV at a multiplicity of infection of 0.1. Details on the infection of cells and assessment of antiviral effects was described previously. See, Schinazi, R. F.; McMillan, A.; Cannon, D.; Mathis, R.; Lloyd, R. M.; Peck, A.; Sommadossi, J.-P.; Clair, M. S.; Wilson, J.; Furman, P. A.; Painter G.; Choi, W.-B.; Liotta, D. C. Antimicrob. Agents Chemother. 1992, 36, 2423-2431 and Schinazi, R. F.; Sommadossi, J.-P.; Saalmann, V.; Cannon, D. L.; Xie, M.-Y.; Hart, G. C.; Smith, G. A.; Hahn, E. F. Antimicrob. Agents Chemother. 1990, 34, 1061-1067.

[12] = tested on: human lung carcinoma A-549
[13] = tested on: human colon carcinoma H-116
[14] = tested on: Vero cells; test: In vitro cytotoxicity to mammalian cells (Vero)
[15] = T4, NC = No Cytotoxicity (concentration: 4760 ng/ml)

How did the MIC ([1]; Mycobacterium tuberculosis, H37RV, T6, read-out: Mycobacterium tuberculosis MIC) turn out when `C1=C/[C@@H]2[C@H]3CCCC[C@@H]3C[C@@H]2NCCCNC2C[C@H]3CCCC[C@@H]3[C@H]2/C=C/1` (single isomer, unassigned; (-)) [Papuamine, (−)-papuamine] was run?
The MIC was 0.4 µg/mL (≈ 1.09 µM).

And the MIC ([2]; Cryptococcus neoformans, lowest concentration that allows no detectable growth)?
The MIC was 0.63 µg/mL (≈ 1.71 µM).

What about the IC50 ([2]; Cryptococcus neoformans, read-out: Cryptococcus neoformans IC50) of the same compound?
Its IC50 is 0.35 µg/mL (≈ 0.95 µM).

What about the IC50 ([3]; Candida albicans, T6) of the same compound?
The IC50 was 1.5 µg/mL (≈ 4.07 µM).

And the MIC ([3]; Candida albicans, T6, MIC: lowest concentration that allows no detectable growth)?
The MIC was 5 µg/mL (≈ 13.6 µM).

What about the IC50 ([4]; Plasmodium falciparum, D6, T6) of the same compound?
Its IC50 is 0.15 µg/mL (≈ 0.407 µM).

And the IC50 ([5]; Plasmodium falciparum, W2, T6, read-out: P. falciparum (W2 clone) IC50)?
The IC50 was 0.34 µg/mL (≈ 0.922 µM).

And the MIC ([6]; Staphylococcus aureus, T6)?
Its MIC is 5 µg/mL (≈ 13.6 µM).

What about the IC50 ([6]; Staphylococcus aureus, T6, read-out: Staphylococcus aureus IC50) of the same compound?
The IC50 was 2.5 µg/mL (≈ 6.78 µM).

And the MIC ([7]; Staphylococcus aureus, T6)?
The MIC was 5 µg/mL (≈ 13.6 µM).

And the IC50 ([7]; T6, MRS: methicillin-resistant Staphylococcus aureus, read-out: MRS IC50)?
Its IC50 is 2.5 µg/mL (≈ 6.78 µM).

And the IC50 ([8]; Mycobacterium intracellulare, T6, read-out: Mycobacterium intracellulare IC50)?
The IC50 was 4 µg/mL (≈ 10.9 µM).

What about the MIC ([9]; Aspergillus fumigatus) of the same compound?
The MIC was 1.25 µg/mL (≈ 3.39 µM).

For `C[C@@H]1[C@H](O)[C@@H](C)/C=C/C=C/C=C/C=C/C=C/C=C/C=C/[C@H](O[C@@H]2O[C@H](C)[C@@H](O)[C@H](N)[C@@H]2O)C[C@@H]2O[C@](O)(C[C@@H](O)C[C@@H](O)[C@H](O)CC[C@@H](O)C[C@@H](O)CC(=O)O[C@H]1C)C[C@H](O)[C@H]2C(=O)O` [Amphotericin B, reference compound], which “Cryptococcus neoformans IC50” value [2] is on record?
The value was 0.25 µg/mL.

What about the “Antifungal IC50 C. neoformans” value [2] of the same compound?
Its value is 0.15 µg/mL.

What about the “Cryptococcus neoformans MIC” value ([2]; lowest concentration that allows no detectable growth) of the same compound?
The value was 0.63 µg/mL.

And the “Candida albicans IC50” value ([3]; T6)?
Its value is 0.10 µg/mL.

And the “Candida albicans MIC” value ([3]; T6, MIC: lowest concentration that allows no detectable growth)?
The value was 0.63 µg/mL.

What about the “Leishmania donovani IC 50” value ([10]; T4) of the same compound?
The value was 0.06 µg/mL.

And the “Leishmania donovani IC 90” value ([10]; T4)?
Its value is 0.15 µg/mL.

And the “Aspergillus fumigatus MIC” value [9]?
The value was 0.63^a μg/mL.

For `CC(=O)C[C@H]1C[C@H]2[C@H]([C@@H]3c4[nH]c5ccccc5c4CCN13)[C@H](O)C13CC/C=C\CCCCN1CC21C2CCCCCCCN2[C@H]13` (some centres unmarked) [Manadomanzamine A], which “MIC against Mycobacterium tuberculosis (Mtb)” value [1] is on record?
Its value is 1.86 µg/mL (≈ 3.04 µM).

And the “EC50 against human immunodeficiency virus (HIV-1)” value (from here on “EC50 … (HIV-1)”) [11]?
The value was 6.96 µg/mL (≈ 11.4 µM).

And the “IC50 against the fungus Candida albicans” value [3]?
The value was 20 µg/mL (≈ 32.7 µM).

And the “IC50 against human lung carcinoma A-549” value [12]?
Its value is 2.5 µg/mL (≈ 4.09 µM).

What about the “IC50 against human colon carcinoma H-116” value [13] of the same compound?
The value was 5.0 µg/mL (≈ 8.18 µM).

How did the “MIC against Mycobacterium tuberculosis (Mtb)” value [1] turn out when `CC(=O)C[C@@H]1C[C@H]2[C@H]([C@@H]3c4[nH]c5ccccc5c4CCN13)[C@H](O)C13CC/C=C\CCCCN1CC21C2CCCCCCCN2[C@H]13` (some centres unmarked) [Manadomanzamine B] was run?
Its value is 1.53 µg/mL (≈ 2.5 µM).

What about the “EC50 … (HIV-1)” value [11] of the same compound?
The value was 16.5 µg/mL (≈ 27 µM).

What about the “IC50 against the fungus Cryptococcus neoformans” value [2] of the same compound?
The value was 3.5 µg/mL (≈ 5.73 µM).

What about the “IC50 against human colon carcinoma H-116” value [13] of the same compound?
Its value is 5.0 µg/mL (≈ 8.18 µM).

Which “Mycobacterium Tuberculosis (H37Rv) MIC” value [1] does the source give for `O[C@]12C=C(c3nccc4c3[nH]c3ccccc34)[C@@H]3CCN(CCCC/C=C\CC1)C[C@@]31C[C@@H]3/C=C\CCCCN3[C@H]12` [Manzamine A] here?
Its value is 1.53 µg/mL.

And the EC50 ([11]; T5)?
Its EC50 is 4.2 µM.

What about the “Antifungal IC50 C. neoformans” value [2] of the same compound?
Its value is 3.0 µg/mL.

What about the “Plasmodium falciparum (D6 clone) IC 50” value ([4]; T4, NA = not active) of the same compound?
The value was 0.0045 µg/mL.

What about the “Plasmodium falciparum (D6 clone) IC 50” value ([4]; T7) of the same compound?
The value was 0.0045 µg/mL.

What about the “P. falciparum (chlorine-resistant W2 clone) IC 50” value ([5]; T4, NA = not active) of the same compound?
The value was 0.008 µg/mL.

And the “P. falciparum (chlorine-resistant W2 clone) IC 50” value ([5]; T7)?
The value was 0.008 µg/mL.

What about the “Leishmania donovani IC 50” value ([10]; T4) of the same compound?
Its value is 0.9 µg/mL.

What about the “Leishmania donovani IC 90” value ([10]; T4) of the same compound?
Its value is 1.8 µg/mL.

What about the “Leishmania donovani IC 50” value ([10]; T7) of the same compound?
The value was 0.9 µg/mL.

What about the “Leishmania donovani IC 90” value ([10]; T7) of the same compound?
The value was 1.8 µg/mL.

What about the “Antibacterial IC50 S. aureus” value [6] of the same compound?
The value was 0.5 µg/mL.

What about the “Antibacterial IC50 MRS” value [7] of the same compound?
The value was 0.7 µg/mL.

And the “IC50 M. intracellulare” value [8]?
The value was 0.35 µg/mL (≈ 0.638 µM).

And the “M. intracellulare IC50” value ([8]; T7, first value of a cell '2.0/5.0')?
The value was 1.53 µg/mL.

And the “Cytotoxicity (Vero)” value [14, 15]?
The value was 1200 ng/mL.

And the “Cytotoxicity (Vero)” value ([14]; T7, NC not defined in this table)?
The value was 1200 ng/mL.

Which results are given for Manzamine A N-oxide?
Mycobacterium Tuberculosis (H37Rv) MIC [1]: 3.9 µg/mL; Antifungal IC50 C. neoformans [2]: 1.0 µg/mL; Plasmodium falciparum (D6 clone) IC 50 ([4]; T4, NA = not active): 0.011 µg/mL; P. falciparum (chlorine-resistant W2 clone) IC 50 ([5]; T4, NA = not active): 0.013 µg/mL; Leishmania donovani IC 50 ([10]; T4): 1.1 µg/mL; Leishmania donovani IC 90 ([10]; T4): 3.8 µg/mL; Antibacterial IC50 S. aureus [6]: 0.5 µg/mL; Antibacterial IC50 MRS [7]: 0.35 µg/mL; IC50 M. intracellulare [8]: 0.2 µg/mL; Cytotoxicity (Vero) [14, 15]: 420 ng/mL

With xestomanzamine A as the compound, how does the “Anti-TB MIC” value ([1]; T1, no unit in table) read?
The value was 14.1 µg/mL.

What about the “EC50 … (HIV-1)” value [11] of the same compound?
The value was 11.2 µg/mL.

And the “IC50 against the fungus Cryptococcus neoformans” value [2]?
Its value is 6.0 µg/mL.

What about the “Cytotoxicity IC50 A-594” value [12] of the same compound?
Its value is >5 µg/mL.

And the “Cytotoxicity IC50 H-116” value [13]?
The value was >5 µg/mL.
